For twelve molecules, pH results are on record in US8816084B1, “Crystals of morphinan derivative, manufacturing method thereof, and pharmaceutical composition using the same” (priority 2013, dated 2014).

One data set in a line: pH Stability Test. In kind it is physicochemical. To be noted: 100 mg solid dissolved in 10 ml deionized water, pH meter; hydrochloride. How it is done:
First, 100 mg of the X-form crystal solid of Examples 1 to 3, and the amorphous solid of Comparative Examples 1-6 were dissolved in 10 ml of deionized water respectively. Then, pH value of the resulting solutions was measured with a pH meter (Type No: Mettler Toledo MP 250). The measurement results are shown in Table 3, wherein the result of the amorphous and A-form crystals of Comparative Examples 4-9 was quoted from U.S. Pat. No. 7,803,942B2.

The conditions of data set [1]: result quoted from U.S. Pat. No. 7,803,942B2; hydrochloride; cited from earlier work.

SMILES strings stand for the structures. Where two headings read alike, the source gives them in different places.

The molecule `CN(C(=O)/C=C/c1ccoc1)[C@@H]1CC[C@@]2(O)[C@H]3Cc4ccc(O)c5c4[C@@]2(CCN3CC2CC2)[C@H]1O5.Cl` (relative stereo) [Comparative Example 1, 17-cyclopropylmethyl-3,14β-dihydroxy-4,5α-epoxy-6β-[N-methyl-trans-3-(3-furyl)acrylamido]morphinan hydrochloride] showed a pH in the data set “pH Stability Test” of 4.4.
For the molecule `CN(C(=O)/C=C/c1ccoc1)[C@@H]1CC[C@@]2(O)[C@H]3Cc4ccc(O)c5c4[C@@]2(CCN3CC2CC2)[C@H]1O5.Cl` (relative stereo) [Comparative Example 2, 17-cyclopropylmethyl-3,14β-dihydroxy-4,5α-epoxy-6β-[N-methyl-trans-3-(3-furyl)acrylamido]morphinan hydrochloride], the pH in “pH Stability Test” came to 2.6.
With `CN(C(=O)/C=C/c1ccoc1)[C@@H]1CC[C@@]2(O)[C@H]3Cc4ccc(O)c5c4[C@@]2(CCN3CC2CC2)[C@H]1O5.Cl` (relative stereo) [Comparative Example 3, 17-cyclopropylmethyl-3,14β-dihydroxy-4,5α-epoxy-6β-[N-methyl-trans-3-(3-furyl)acrylamido]morphinan hydrochloride], in the data set “pH Stability Test”, the pH was found to be 3.7.
As to `CN(C(=O)/C=C/c1ccoc1)[C@@H]1CC[C@@]2(O)[C@H]3Cc4ccc(O)c5c4[C@@]2(CCN3CC2CC2)[C@H]1O5.Cl` (relative stereo) [Comparative Example 4, 17-cyclopropylmethyl-3,14β-dihydroxy-4,5α-epoxy-6β-[N-methyl-trans-3-(3-furyl)acrylamido]morphinan hydrochloride], the pH in data set [1] was 3.7.
On to `CN(C(=O)/C=C/c1ccoc1)[C@@H]1CC[C@@]2(O)[C@H]3Cc4ccc(O)c5c4[C@@]2(CCN3CC2CC2)[C@H]1O5.Cl` (relative stereo) [Comparative Example 5, 17-cyclopropylmethyl-3,14β-dihydroxy-4,5α-epoxy-6β-[N-methyl-trans-3-(3-furyl)acrylamido]morphinan hydrochloride], for which the pH in data set [1] was 4.7.
With `CN(C(=O)/C=C/c1ccoc1)[C@@H]1CC[C@@]2(O)[C@H]3Cc4ccc(O)c5c4[C@@]2(CCN3CC2CC2)[C@H]1O5.Cl` (relative stereo) [Comparative Example 6, 17-cyclopropylmethyl-3,14β-dihydroxy-4,5α-epoxy-6β-[N-methyl-trans-3-(3-furyl)acrylamido]morphinan hydrochloride], the pH in data set [1] was 3.5.
Regarding `CN(C(=O)/C=C/c1ccoc1)[C@@H]1CC[C@@]2(O)[C@H]3Cc4ccc(O)c5c4[C@@]2(CCN3CC2CC2)[C@H]1O5.Cl` (relative stereo) [Comparative Example 7, 17-cyclopropylmethyl-3,14β-dihydroxy-4,5α-epoxy-6β-[N-methyl-trans-3-(3-furyl)acrylamido]morphinan hydrochloride], the pH in data set [1] was 5.8.
With `CN(C(=O)/C=C/c1ccoc1)[C@@H]1CC[C@@]2(O)[C@H]3Cc4ccc(O)c5c4[C@@]2(CCN3CC2CC2)[C@H]1O5.Cl` (relative stereo) [Comparative Example 8, 17-cyclopropylmethyl-3,14β-dihydroxy-4,5α-epoxy-6β-[N-methyl-trans-3-(3-furyl)acrylamido]morphinan hydrochloride], in data set [1], the pH is 5.4.
As for `CN(C(=O)/C=C/c1ccoc1)[C@@H]1CC[C@@]2(O)[C@H]3Cc4ccc(O)c5c4[C@@]2(CCN3CC2CC2)[C@H]1O5.Cl` (relative stereo) [Comparative Example 9, 17-cyclopropylmethyl-3,14β-dihydroxy-4,5α-epoxy-6β-[N-methyl-trans-3-(3-furyl)acrylamido]morphinan hydrochloride], the pH in data set [1] is recorded as 5.6.
Consider `CN(C(=O)/C=C/c1ccoc1)[C@@H]1CC[C@@]2(O)[C@H]3Cc4ccc(O)c5c4[C@@]2(CCN3CC2CC2)[C@H]1O5.Cl` (relative stereo) [Example 1, 17-cyclopropylmethyl-3,14β-dihydroxy-4,5α-epoxy-6β-[N-methyl-trans-3-(3-furyl)acrylamido]morphinan hydrochloride], for which, in “pH Stability Test”, the pH came out at 3.5.
As for `CN(C(=O)/C=C/c1ccoc1)[C@@H]1CC[C@@]2(O)[C@H]3Cc4ccc(O)c5c4[C@@]2(CCN3CC2CC2)[C@H]1O5.Cl` (relative stereo) [Example 2, 17-cyclopropylmethyl-3,14β-dihydroxy-4,5α-epoxy-6β-[N-methyl-trans-3-(3-furyl)acrylamido]morphinan hydrochloride], the pH in the data set “pH Stability Test” turned out to be 3.6.
In the case of `CN(C(=O)/C=C/c1ccoc1)[C@@H]1CC[C@@]2(O)[C@H]3Cc4ccc(O)c5c4[C@@]2(CCN3CC2CC2)[C@H]1O5.Cl` (relative stereo) [Example 3, 17-cyclopropylmethyl-3,14β-dihydroxy-4,5α-epoxy-6β-[N-methyl-trans-3-(3-furyl)acrylamido]morphinan hydrochloride], the pH in the data set “pH Stability Test” is reported as 3.6.
